The source of these data is ChEMBL document CHEMBL3046479, “Preparation and antimicrobial activity evaluation of some new bi- and triheterocyclic azoles” (2013).

What all share (assay type): functional
One test has as its system Candida albicans. As to the kind of experiment: Antimicrobial activity against Candida albicans ATCC 60193 assessed as growth inhibition after 18-24 hr by broth double microdilution method.
For test [1], the system named is Mycolicibacterium smegmatis. The test is described as follows: Antimicrobial activity against Mycobacterium smegmatis ATCC 607 assessed as growth inhibition after 48-72 hr by broth double microdilution method.
Another test deals with Bacillus cereus. As to the kind of experiment: Antimicrobial activity against Bacillus cereus 709 Roma assessed as growth inhibition after 18-24 hr by broth double microdilution method.
The subject of the next test is Staphylococcus aureus. As to the kind of experiment: Antimicrobial activity against Staphylococcus aureus ATCC 25923 assessed as growth inhibition after 18-24 hr by broth double microdilution method.
The next test concerns Enterococcus faecalis. The test is described as follows: Antimicrobial activity against Enterococcus faecalis ATCC 29212 assessed as growth inhibition after 18-24 hr by broth double microdilution method.
For another test, the system named is Listeria monocytogenes. As to the kind of experiment: Antimicrobial activity against Listeria monocytogenes ATCC 43251 assessed as growth inhibition after 18-24 hr by broth double microdilution method.
Another test has as its system Pseudomonas aeruginosa. As to the kind of experiment: Antimicrobial activity against Pseudomonas aeruginosa ATCC 10145 assessed as growth inhibition after 18-24 hr by broth double microdilution method.
The test system of test [2] is Yersinia pseudotuberculosis. The test is described as follows: Antimicrobial activity against Yersinia pseudotuberculosis ATCC 911 assessed as growth inhibition after 18-24 hr by broth double microdilution method.
Another test deals with Escherichia coli. As to the kind of experiment: Antimicrobial activity against Escherichia coli ATCC 35218 assessed as growth inhibition after 18-24 hr by broth double microdilution method.
In the next test the test system is Saccharomyces cerevisiae. The test is described as follows: Antimicrobial activity against Saccharomyces cerevisiae RSKK 251 assessed as growth inhibition after 18-24 hr by broth double microdilution method.

≈ marks a conversion by molar mass, not a printed value. Calls of active or inactive are those of the source. The rule behind the calls is not given here.

As to `Cc1nn(Cc2nnc(S)n2-c2ccccc2)c(=O)n1/N=C/c1ccncc1`, the MIC with Candida albicans was 250 µg/mL (≈ 637 µM). Moreover, the MIC result (in test [1]; in the test on Bacillus cereus; with Staphylococcus aureus; with Enterococcus faecalis; with Listeria monocytogenes; in the test with Pseudomonas aeruginosa) was “inactive” each time. The MIC entry (in test [2]; in the test on Escherichia coli; in the test on Saccharomyces cerevisiae) was “inactive” throughout.

Consider `COc1ccc(/C=N/NC(=O)Cn2nc(C)n(/N=C/c3ccncc3)c2=O)cc1O`, for which, in the test with Candida albicans, the MIC was 125 µg/mL (≈ 305 µM). Also, the MIC result (in test [1]; in the test on Bacillus cereus; with Staphylococcus aureus; in the test with Enterococcus faecalis; with Listeria monocytogenes; with Pseudomonas aeruginosa) was “inactive” in each case. The MIC entry (in [2]; in the test with Escherichia coli; with Saccharomyces cerevisiae) was “inactive” in each case.

Regarding `Cc1nn(Cc2nnc(S)n2-c2ccccc2)c(=O)n1CCCn1ccnc1`, the MIC with Candida albicans is 500 µg/mL (≈ 1260 µM); in [1], 125 µg/mL (≈ 315 µM); with Saccharomyces cerevisiae, 500 µg/mL (≈ 1260 µM). The MIC entry (in the test with Bacillus cereus; in the test on Staphylococcus aureus; with Enterococcus faecalis; in the test with Listeria monocytogenes; in the test on Pseudomonas aeruginosa; in [2]) was “inactive” in each case. Also, the MIC entry in the test with Escherichia coli was “inactive”.

For `COc1ccc(/C=N/NC(=O)Cn2nc(C)n(/N=C/c3ccncc3)c2=O)cc1`, the MIC in the test on Candida albicans amounted to 250 µg/mL (≈ 635 µM). In addition, the MIC result (in test [1]; in the test with Bacillus cereus; with Staphylococcus aureus; in the test on Enterococcus faecalis; in the test with Listeria monocytogenes; in the test with Pseudomonas aeruginosa) was “inactive” in each case. Besides, the MIC result (in [2]; in the test on Escherichia coli; in the test with Saccharomyces cerevisiae) was “inactive” each time.

Consider `Cc1nn(-c2ccc([N+](=O)[O-])cc2F)c(=O)n1CCCn1ccnc1`, for which the MIC in the test with Candida albicans and in the test with Saccharomyces cerevisiae was 500 µg/mL (≈ 1440 µM) each time. The MIC entry (in test [1]; in the test with Bacillus cereus; with Staphylococcus aureus; in the test on Enterococcus faecalis; in the test on Listeria monocytogenes; with Pseudomonas aeruginosa) was “inactive” throughout. Also, the MIC entry (in [2]; in the test with Escherichia coli) was “inactive” in each case.

With `Cc1nn(CN2CCN(c3ccccc3)CC2)c(=O)n1CCCn1ccnc1`, the MIC result (in the test on Candida albicans; in test [1]; in the test with Enterococcus faecalis; in the test with Listeria monocytogenes; with Escherichia coli) was “inactive” throughout. Further, the MIC with Bacillus cereus came to 1.2 µg/mL (≈ 3.15 µM); in the test with Staphylococcus aureus, 62.5 µg/mL (≈ 164 µM); in the test on Pseudomonas aeruginosa, 31.3 µg/mL (≈ 82 µM); in test [2], 0.7 µg/mL (≈ 1.83 µM); in the test with Saccharomyces cerevisiae, 125 µg/mL (≈ 328 µM).

As to `Cc1n[nH]c(=O)n1/N=C/c1ccncc1`, the figures for the MIC (with Candida albicans; in test [1]; with Saccharomyces cerevisiae) were 125 µg/mL (≈ 615 µM), 125 µg/mL (≈ 615 µM) and 500 µg/mL (≈ 2460 µM), respectively. In addition, the MIC entry (in the test on Bacillus cereus; in the test on Staphylococcus aureus; with Enterococcus faecalis; in the test on Listeria monocytogenes; in the test on Pseudomonas aeruginosa; in test [2]) was “inactive” each time. For the same compound, the MIC result with Escherichia coli was “inactive”.
